Measurements as given in paper PMC9082918, “Time-course changes in DNA damage of corneal epithelial cells in rabbits following ocular instillation with genotoxic compounds” (Genes and Environment, 2022).
Like-named read-outs stand apart in the source and are kept apart here. Marks after values point to notes of the source that are not given here.

What was measured:
[1] = test system: corneal epithelial cells of rabbit; assay: In vivo alkaline comet assay of corneal epithelial cells after single ocular instillation
Description: Experiments were performed per sampling time, and […] clinically normal rabbits were randomly assigned to each treatment group.
After ocular instillation, the eyelids were artificially blinked several times. The rabbits were euthanized after 0.5, 2, 4, 6, and 24 h by intravenously administering an overdose (approximately 90 mg/kg) of thiopental solution (Ravonal; Nipro ES Pharma Co. Ltd., Osaka, Japan). The eyeballs of the rabbits were collected after euthanasia and subjected to the comet assay.
The collected eyes were washed with Ca^2+- and Mg^2+-free phosphate-buffered saline (PBS). After washing, the corneas were removed from the eyes using scissors. The removed corneas were treated with 1.2 unit/mL Dispase II (Roche Diagnostics K.K., Tokyo, Japan) in minimum essential media (MEM; Thermo Fisher Scientific K. K., Tokyo, Japan) supplemented with 10% bovine serum (10% BS/MEM) overnight at 4 °C. Corneal epithelial cells were isolated using a spatula and placed into fresh 10% BS/MEM. The cells were centrifuged at 200×g for 5 min, and the supernatants were discarded. The cells were resuspended in 1 mL of 0.25% trypsin (Thermo Fisher Scientific K. K.) and incubated for 10 min at 37 °C. Furthermore, 8 mL of 10% BS/MEM was added to the cells, and the cell suspensions were passed through a 70-μm cell strainer. The cells were centrifuged at 200×g for 5 min, and the supernatants were discarded. The cells were then resuspended with PBS to a density of approximately 2 × 10^5 cells/mL.
The alkaline comet assay was conducted according to previously published method. A 30 μL of the prepared cell suspension was mixed with 270 μL of melted agarose solution (CometAssay LMAgarose; Trevigen, Inc., Gaithersburg, MD). Then, 30 μL of this mixture was placed in each well of a 20-well slide (CometSlide HT, Trevigen, Inc.), and the slide was left for approximately 10 min at 4 °C to solidify the agarose. The slide was immersed in lysis solution (pH 10) containing 2.5 M sodium chloride, 100 mM di-sodium dihydrogen ethylenediaminetetraacetate dihydrate (EDTA∙2Na), 10 mM tris(hydroxymethyl)aminomethane (Tris), and 1% (v/v) polyethylene glycol mono-p-isooctylphenyl ether for 1 h at 4 °C. Subsequently, the slide was immersed in an alkaline unwinding solution (200 mM sodium hydroxide and 1 mM EDTA, pH > 13) for 20 min at room temperature. Electrophoresis was performed with the same solution at 1 V/cm for 30 min under refrigeration. After electrophoresis, the slide was washed twice with ultrapure water and dehydrated by immersion in ethanol for 10 min. The slide was stained with SYBR Green I Nucleic Acid Gel Stain (excitation maxima at 497 nm, emission maxima at 520 nm; Thermo Fisher Scientific K. K.) diluted 1:1000 with Tris-EDTA buffer (pH 7.5) and mounted using ProLong Gold (Thermo Fisher Scientific K. K.). The slide was observed using a BX51 fluorescence microscope (Olympus Corporation, Tokyo, Japan) with a NIBA filter (excitation at 460–495 nm and emission at 510–550 nm) equipped with a CCD camera (scA1300-32 fm; Basler AG, Ahrensburg, Germany).
First, the number of “hedgehogs” was counted among 150 comets per eye (450 comets per group). According to the Atlas of Comet Assay Images, hedgehogs are highly fragmented cells presenting as a small or non-existent comet head and large diffuse comet tail. Second, 150 scorable comets (i.e., with a clearly defined head and tail with no interference from neighboring cells) without hedgehogs were measured per eye (450 comets per group).

HCE-T cells [2] = assay: In vitro comet assay after 1 min exposure; assay type: cell-based, human
Description: To assess time-course changes in DNA damage after short-time exposure to the genotoxic compounds, the in vitro comet assay was performed using HCE-T cells with reference to our previous study. Briefly, the HCE-T cells were seeded in a 12-well culture plate at a density of 5 × 10^4 cells/well (1 mL/well) and incubated for approximately 24 h. After a 24-h incubation, the cells were washed with PBS. […] After the treatment, the cells were washed with PBS, and 1 mL of fresh culture medium was added. The cells were further incubated for 2, 4, 6, and 24 h at 37 °C. After incubation, the cells were trypsinized (TrypLE™ Express, Thermo Fisher Scientific K.K.). In the same manner, the cells were exposed to the test compounds or distilled water as a negative control for 1 min to evaluate DNA damage immediately after exposure. Immediately after the treatment, the cells were washed and trypsinized. The collected cells were centrifuged and re-suspended in PBS at a density of 1–2 × 10^5 cells/mL. Comet assay was performed as described previously herein (n = 3/group).
(§1) The mean and SD of the % tail DNA and cell viability (%) were calculated for all experimental groups. […] JMP version 15.1.0 was used for all statistical analyses.

[3] = test system: anterior segment of the eye; assay: Ophthalmological examination of anterior ocular segment (slit-lamp, fluorescein staining); assay type: in vivo, rabbit
Description: (§2) Twenty-four hours after administration, the anterior segment of the eye was observed using a slit-lamp biomicroscope SL-130 (Carl Zeiss Meditec AG, Jena, Germany). The corneal epithelial damage was evaluated by staining with fluorescein (AYUMI Pharmaceutical Corporation, Tokyo, Japan). After anterior ocular observation, the rabbits were euthanized in the same manner as the comet assay, and the eyeballs of the rabbits were collected.

[4] = Cytotoxicity assay (Cell Counting Kit-8) after 1 min exposure; assay type: cell-based, human; conditions: human
Description: (§3) For cytotoxicity assay, the HCE-T cells were seeded in a 96-well culture plate at a density of 5 × 10^3 cells/well (100 μL/well) and incubated for approximately 24 h. After the 24-h incubation, the cells were washed with PBS. The cells were then exposed to a mixture of 50 μL of serum-free medium and an equal volume of test compounds at twice concentration of final concentration for 1 min at room temperature. After the treatment, the cells were washed with PBS, and 100 μL of fresh culture medium was added. The cells were further incubated for 2, 4, 6, and 24 h at 37 °C. After that, the cells were incubated with 100 μL of Cell Counting Kit-8 (Dojindo Laboratories Co., Ltd., Kumamoto, Japan) diluted to one-tenth with a serum-free medium for 2 h at 37 °C. Absorbance was measured at 450 nm using a microplate reader (Synergy HTX, BioTek Instruments Inc., Winooski, VT). Cell viability was calculated as follows: the absorbance of compound-treated cells/the absorbance of non-treated cells, expressed as a percentage (n = 3/group).
as §1

HCE-T cells [5] = assay: as above; assay type: cell-based, human
Description: as §3, §1

rabbit cornea = assay: Histopathological examination of cornea; conditions: in vivo
Description: as §2
The collected eyes (one eye per group) were fixed with 1% formaldehyde/2.5% glutaraldehyde in 0.1 M phosphate buffer fixative overnight at 4 °C and post-fixed with 10% neutral-buffered formalin solution. The tissues were dehydrated using a graded alcohol series and embedded in paraffin. Approximately 3-μm-thick corneal tissue sections were prepared and stained with hematoxylin and eosin. All microscopic images were obtained with a BX53 microscope fitted with a DP74 digital camera (Olympus Corporation) and analyzed using the cellSens Standard imaging software, version 2.3 (Olympus Corporation).

[6] = after single ocular instillation (1% EtBr, 3% MMS, 1% 4-NQO), sampling at 0.5, 2, 4, 6, 24 h

CC[n+]1c(-c2ccccc2)c2cc(N)ccc2c2ccc(N)cc21 [EtBr, ethidium bromide]
% tail DNA, median ([1]; 0.5 h after single ocular instillation (1% EtBr, 3% MMS, 1% 4-NQO)): 25.8% | Frequency of hedgehog ([1]; 0.5 h after single ocular instillation (1% EtBr, 3% MMS, 1% 4-NQO), mean ± SD, n = 3): 3.6 ± 2.5% | % tail DNA, mean ± SD ([1]; 0.5 h after single ocular instillation of 50 μL (1% EtBr, 3% MMS, 1% 4-NQO), n = 3 eyes): 31.0 ± 3.0% | % tail DNA, median ([1]; 2 h after single ocular instillation (1% EtBr, 3% MMS, 1% 4-NQO)): 22.6% | Frequency of hedgehog ([1]; 2 h after single ocular instillation (1% EtBr, 3% MMS, 1% 4-NQO), mean ± SD, n = 3): 3.3 ± 1.7% | % tail DNA, mean ± SD ([1]; 2 h after single ocular instillation of 50 μL (1% EtBr, 3% MMS, 1% 4-NQO), n = 3 eyes): 28.1 ± 1.6% | % tail DNA, median ([1]; 4 h after single ocular instillation (1% EtBr, 3% MMS, 1% 4-NQO)): 61.5% | Frequency of hedgehog ([1]; 4 h after single ocular instillation (1% EtBr, 3% MMS, 1% 4-NQO), mean ± SD, n = 3): 8.9 ± 3.5^a % | % tail DNA, mean ± SD ([1]; 4 h after single ocular instillation of 50 μL (1% EtBr, 3% MMS, 1% 4-NQO), n = 3 eyes): 55.3 ± 1.4% | % tail DNA, median ([1]; 6 h after single ocular instillation (1% EtBr, 3% MMS, 1% 4-NQO)): 40.4% | Frequency of hedgehog ([1]; 6 h after single ocular instillation (1% EtBr, 3% MMS, 1% 4-NQO), mean ± SD, n = 3): 1.6 ± 2.3% | % tail DNA, mean ± SD ([1]; 6 h after single ocular instillation of 50 μL (1% EtBr, 3% MMS, 1% 4-NQO), n = 3 eyes): 41.0 ± 6.5% | % tail DNA, median ([1]; 24 h after single ocular instillation (1% EtBr, 3% MMS, 1% 4-NQO)): 5.4% | Frequency of hedgehog ([1]; 24 h after single ocular instillation (1% EtBr, 3% MMS, 1% 4-NQO), mean ± SD, n = 3): 0.4 ± 0.6% | % tail DNA, mean ± SD ([1]; 24 h after single ocular instillation of 50 μL (1% EtBr, 3% MMS, 1% 4-NQO), n = 3 eyes): 10.0 ± 4.0% | Time of the peak value of the % tail DNA [1, 6]: 4 h | Change of % tail DNA after removing the compound (HCE-T cells [2]; 1 min exposure (0.5% EtBr, 0.5% MMS, 0.001% 4-NQO), then 2, 4, 6, 24 h in fresh medium): gradually increased | Ophthalmological changes of the anterior ocular segment ([3]; 24 h after single ocular instillation (1% EtBr, 3% MMS)): No abnormal ophthalmological changes | viability at 2 h ([4]; read-out: Cell viability): 89.3 ± 6.1% | viability at 4 h ([4]; read-out: Cell viability): 74.7 ± 8% | viability at 6 h ([4]; read-out: Cell viability): 73.1 ± 4.6% | viability at 24 h ([4]; read-out: Cell viability): 39.1 ± 1.3% | Cytotoxicity (in words) (HCE-T cells [5]; 24 h after removing the compound, 1 min exposure, 0.5% EtBr): Moderate cytotoxicity | Cytotoxicity (in words) (HCE-T cells [5]; other times (2, 4, 6 h) after removing the compound, 1 min exposure, 0.5% EtBr): slight cytotoxicity

O=[N+]([O-])c1cc[n+]([O-])c2ccccc12 [4-NQO, 4-nitroquinoline 1-oxide]
Time of the peak value of the % tail DNA [1, 6]: 0.5 h | viability at 2 h ([4]; read-out: Cell viability): 139 ± 2% | viability at 4 h ([4]; read-out: Cell viability): 114 ± 14.5% | viability at 6 h ([4]; read-out: Cell viability): 123 ± 24.2% | viability at 24 h ([4]; read-out: Cell viability): 118 ± 13.9%

COS(C)(=O)=O [MMS, methyl methanesulfonate]
Time of the peak value of the % tail DNA ([1]; rabbit, in vivo): 0.5 h | % tail DNA, mean ± SD ([1]; rabbit, in vivo, 0.5 h): 66.2 ± 1.8% | % tail DNA, median ([1]; rabbit, in vivo, 0.5 h): 70.8% | Frequency of hedgehog ([1]; rabbit, in vivo, 0.5 h): 12.9 ± 7.8^a % | % tail DNA, mean ± SD ([1]; rabbit, in vivo, 2 h): 63.6 ± 4.4% | % tail DNA, median ([1]; rabbit, in vivo, 2 h): 69.4% | Frequency of hedgehog ([1]; rabbit, in vivo, 2 h): 13.6 ± 8.3^a % | % tail DNA, mean ± SD ([1]; rabbit, in vivo, 4 h): 47.1 ± 7.2% | % tail DNA, median ([1]; rabbit, in vivo, 4 h): 48.9% | Frequency of hedgehog ([1]; rabbit, in vivo, 4 h): 10.7 ± 1.0^a % | % tail DNA, mean ± SD ([1]; rabbit, in vivo, 6 h): 50.1 ± 2.8% | % tail DNA, median ([1]; rabbit, in vivo, 6 h): 56.0% | Frequency of hedgehog ([1]; rabbit, in vivo, 6 h): 8.0 ± 2.0^a % | % tail DNA, mean ± SD ([1]; rabbit, in vivo, 24 h): 40.1 ± 2.4% | % tail DNA, median ([1]; rabbit, in vivo, 24 h): 38.1% | Frequency of hedgehog ([1]; rabbit, in vivo, 24 h): 2.0 ± 1.0^a % | Infiltrate, inflammatory cell, corneal limbus (rabbit cornea): ± | Change of % tail DNA after removing the compound (HCE-T cells [2]): decreased | Ophthalmological changes of the anterior ocular segment ([3]; rabbit, in vivo): No abnormal ophthalmological changes | viability at 2 h [4]: 115 ± 5.1% | viability at 4 h [4]: 108.1 ± 0.3% | viability at 6 h [4]: 108 ± 4.9% | viability at 24 h [4]: 108 ± 11.3% | Cytotoxicity (in words) (HCE-T cells [5]): no cytotoxicity
